Results taken from patent US11166924B2, “N-methyl-d-aspartate receptor allosteric modulators and methods for their use” (Qingdao Primedicine Pharmaceutical Company, Ltd., priority 2016, dated 2021).

System: GluN2A NMDARs
Assay: NMDAR EPSC in brain slices of wild-type and GluN2A knockout mice
Parameters: species or system mouse
Conditions: FIG. 20
Description: Male and female wild-type or GluN2A KO mice 20-25-day old were anesthetized using Isoflurane and rapidly decapitated. Brains were removed and immersed for 30 sec in cold (2-4° C.) cutting solution containing: 92 mM NMDG, 2.5 mM KCl, 1.25 mM NaH2PO4, 30 mM NaHCO3, 20 mM HEPES, 4.5 mM D-glucose, 5 mM Na-ascorbate, 3 mM Na-pyruvate, 0.5 mM CaCl2, and 10 mM MgCl2. The brain was blocked in melted 3% agar-A (CAS #9002-18-0, Bio Basic Canada Inc.), then glued onto the slicing platform and sectioned coronally at 320 μm thickness with a vibratome (Leica VT 1000S) containing cold (2-4° C.) bubbled (95% O2/5% CO2) cutting solution. Sections that included the prefrontal cortex were transferred into continuously carbogenated pre-warmed (32-34° C.) cutting solution for a period of 12 min time for initial recovery. […]
A brain slice was transferred onto a recording chamber on an upright Nikon FN1 microscope and the chamber was continuously perfused with 32° C. carbogenated aCSF recording solution containing: 121.85 mM NaCl, 2.5 mM KCl, 1.2 mM NaH2PO4, 24 mM NaHCO3, 12.5 mM D-glucose, 5 mM Na-ascorbate, 3 mM Na-pyruvate, 2 mM CaCl2, 0.1 mM MgCl2. Pyramidal neurons were identified in layer V of the prefrontal cortex via video monitored infra-red differential interference contrast illumination microscopy using a CFI APO 40× W NIR objective (0.80 numerical aperture, 3.5 mm working distance). […]

In the case of `CCOc1cc(Cl)c(Cl)c(/C=N/NC(=O)c2ccccc2Br)c1O` [Npam43, (E)-2-bromo-N′-(2,3-dichloro-5-ethoxy-6-hydroxybenzylidene)benzohydrazide], the “Effect on NMDAR EPSC, GluN2A KO mice” value (brain slices of GluN2A KO mice) is reported as “no effect” and the “Effect on NMDAR EPSC, WT mice” value (brain slices of wild-type mice) is reported as “clear potentiation of NMDAR EPSC”.
